Literature values, collected in patent US11058116B1, “Composition for stimulating plant growth and resistance to stress factors” (AGRATEK PTE. LTD., priority 2018, dated 2021).

Tests used:
mold = details: pre-treatment of seeds with a solution
seeds = details: pre-treatment of seeds with a solution

O=C([O-])CCC(=O)[O-].[Mg+2] [succinate of magnesium, magnesium succinate (Mg2C4H4O4)]
reduces the seeds infection with mold (mold): 86%
germination (increased to) (seeds): 99%
